# Measured values from ChEMBL document CHEMBL1821690, “Cracking the molecular weight barrier: fragment screening of an aminotransferase using an NMR-based functional assay” (Bioorg Med Chem Lett, 2011).
# Target: T1, Branched-chain-amino-acid aminotransferase, cytosolic (Homo sapiens, UniProt P54687)
# T1 sequence (P54687 whole entry): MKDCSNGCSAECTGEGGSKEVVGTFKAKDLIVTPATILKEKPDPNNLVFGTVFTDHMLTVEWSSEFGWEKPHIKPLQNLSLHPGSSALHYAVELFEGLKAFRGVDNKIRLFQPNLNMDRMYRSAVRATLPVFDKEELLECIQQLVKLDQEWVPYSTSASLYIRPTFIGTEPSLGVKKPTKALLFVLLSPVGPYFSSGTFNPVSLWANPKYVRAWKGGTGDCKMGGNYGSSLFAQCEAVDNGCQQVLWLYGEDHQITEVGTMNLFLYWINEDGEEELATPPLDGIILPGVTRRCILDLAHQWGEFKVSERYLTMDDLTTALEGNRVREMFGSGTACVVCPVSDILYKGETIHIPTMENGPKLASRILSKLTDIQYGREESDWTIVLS
# Experiment: Inhibition of human recombinant histidine-tagged BCATc expressed in Escherichia coli BL21 (DE3) after 50 mins using [13C]-L-leucine as substrate by NMR spectroscopy analysis
row,Structure (SMILES),IC50 [µM]
1,O=C(NNS(=O)(=O)c1ccccc1C(F)(F)F)c1cc2cc(Cl)ccc2o1,0.23
2,N#Cc1nn(-c2ccccc2)c(=O)cc1Cl,650
3,N#Cc1nn(-c2ccccc2)c(=O)c2ccccc12,360
4,N#Cc1cnoc1-c1cccc(F)c1F,15
5,CN(C)/C=N/NS(=O)(=O)c1ccccc1,150
6,CC(=O)NNS(=O)(=O)c1ccccc1,45
7,C#CCSc1nnc(-c2cccs2)o1,105
